One assay deals with KRAS G12C (Homo sapiens (Human), UniProt P01116, C118A/G12C). In words: 2 h coupled exchange assay. It is filed as biochemical. The settings on record: Avg 2 h Coupled exchange IC50, 2 h compound pre-incubation. How it is done: The term “2 h coupled exchange assay” or “20 h coupled exchange assay” as used herein refers to the assay described in the Section entitled “BIOLOGICAL EVALUATION.”

Assay [1] relates to A549 (human lung carcinoma) cells. Briefly: Cell Viability Assay (CellTiter-Glo), A549. Format: cell-based. An outline of the steps: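 After a 72 h exposure to serial compound dilutions at 37° C, luminescent ATP content was measured with CellTiter-Glo. The cells were A549 or MIA PaCa-2, seeded at 1.67E+04 cells/mL in RPMI 1640 with 10% serum. Signals were normalized to DMSO controls and IC50 fitted with a 4-parameter logistic model.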
For orientation: In ATP-based viability assays light output follows the ATP content of the culture.

Assay [2] relates to MIA PaCa-2 (human pancreatic carcinoma) cells. In words: Cell Viability Assay (CellTiter-Glo), MIA PaCa-2. It is filed as cell-based. How it is done: Serially-diluted compound or DMSO was added to the cells, and plates were incubated at 37° C., 5% CO2 for 72 h. Cell viability was measured using a CellTiter-Glo® Luminescent Cell Viability Assay kit (Promega) according to the manufacturer's protocol. The luminescence signal of treated samples was normalized to DMSO control, and data were analyzed using a 4-parameter logistic model to calculate IC50 values.

Experimental findings from US20240059703A1 (AMGEN INC., priority 2021, published 2024) are described below.

Bounds are passed on as bounds.

Chain of KRAS G12C (P01116 other isoform, or with tags, fused parts or gaps G12C/C118A): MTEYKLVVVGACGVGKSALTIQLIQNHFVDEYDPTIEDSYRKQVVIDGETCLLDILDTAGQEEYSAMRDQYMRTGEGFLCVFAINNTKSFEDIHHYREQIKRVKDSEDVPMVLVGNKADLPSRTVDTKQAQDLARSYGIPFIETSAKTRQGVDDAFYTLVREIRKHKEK

What is called IC50 is the point on the concentration scale where inhibition reaches its midpoint. A high value points to weaker potency. Consider `C=CC(=O)N1CC2(CCN(c3nc4c(c(-c5cccc6cc(O)ccc56)c3C)CCN(C(C)C)C4)C2)C1` (single isomer, unassigned) [Example 18-4, (P)-1-(6-(4-(6-hydroxy-1-naphthalenyl)-3-methyl-7-(2-propanyl)-5,6,7,8-tetrahydro-1,7-naphthyridin-2-yl)-2,6-diazaspiro[3.4]octan-2-yl)-2-propane-1-one], for which the IC50 was 17 nM against KRAS G12C; over 5000 nM in assay [1] (Homo sapiens, A549, 72 h); 12 nM in assay [2] (Homo sapiens, MIA PaCa-2, 72 h).

On to `C=CC(=O)N1CC2(CCN(c3nc4c(c(-c5c(C)ccc6[nH]ncc56)c3C)CCN(C(C)C)C4)C2)C1` (single isomer, unassigned) [Example 18-19, (P)-1-(6-(3-methyl-4-(5-methyl-1H-indazol-4-yl)-7-(2-propanyl)-5,6,7,8-tetrahydro-1,7-naphthyridin-2-yl)-2,6-diazaspiro[3.4]octan-2-yl)-2-propane-1-one], for which the half-inhibitory concentration (IC50) was 131 nM on KRAS G12C; over 25000 nM in assay [1] (Homo sapiens, A549, 72 h); 56 nM in assay [2] (72 h).

Consider `C=CC(=O)N1CC2(CCN(c3nc4c(c(-c5c(C)ccc6[nH]ncc56)c3C)CCN(C(C)C)C4)C2)C1` (single isomer, unassigned) [Example 18-22, (M)-1-(6-(3-methyl-4-(5-methyl-1H-indazol-4-yl)-7-(2-propanyl)-5,6,7,8-tetrahydro-1,7-naphthyridin-2-yl)-2,6-diazaspiro[3.4]octan-2-yl)-2-propen-1-one], for which the IC50 against KRAS G12C was 6880 nM; in assay [1] (72 h), over 20000 nM; in assay [2] (72 h), 804 nM.

Consider `C=CC(=O)N1CC2(CCN(c3nc4cc(-c5scnc5C)ccc4c(-c4c(O)cccc4F)c3C#N)C2)C1` (single isomer, unassigned) [Example 19-4, (P)-4-(2-fluoro-6-hydroxyphenyl)-7-(4-methyl-1,3-thiazol-5-yl)-2-(2-(2-propenoyl)-2,6-diazaspiro[3.4]octan-6-yl)-3-quinolinecarbonitrile], for which the IC50 against KRAS G12C is 38 nM; in assay [1] (Homo sapiens, A549, 72 h) it was over 5000 nM; in assay [2] (72 h) it was 695 nM.

For the compound `C=CC(=O)N1CC2(CCN(c3nc4cc(-c5scnc5C)ccc4c(-c4ccccc4C)c3C#N)C2)C1` (single isomer, unassigned) [Example 19-11, (P)-4-(2-methylphenyl)-7-(4-methyl-1,3-thiazol-5-yl)-2-(2-(2-propenoyl)-2,6-diazaspiro[3.4]octan-6-yl)-3-quinolinecarbonitrile], the IC50 is 68 nM on KRAS G12C; over 5000 nM in assay [1] (Homo sapiens, A549, 72 h); 1350 nM in assay [2] (Homo sapiens, MIA PaCa-2, 72 h).

Regarding `C=CC(=O)N1CC2(CCN(c3nc4cc(-c5scnc5C)ccc4c(-c4ccccc4C)c3C#N)C2)C1` (single isomer, unassigned) [Example 19-12, (M)-4-(2-methylphenyl)-7-(4-methyl-1,3-thiazol-5-yl)-2-(2-(2-propenoyl)-2,6-diazaspiro[3.4]octan-6-yl)-3-quinolinecarbonitrile], the IC50 at KRAS G12C was 74 nM; in assay [1] (72 h), 3790 nM; in assay [2] (72 h), 1400 nM.

For the compound `C=CC(=O)N1CC2(CCN(c3nc4cc(-c5scnc5C)cnc4c(-c4cccc(C)c4C)c3C#N)C2)C1` (single isomer, unassigned) [Example 19-13, (M)-4-(2,3-dimethylphenyl)-7-(4-methyl-1,3-thiazol-5-yl)-2-(2-(2-propenoyl)-2,6-diazaspiro[3.4]octan-6-yl)-1,5-naphthyridine-3-carbonitrile], the concentration for half-maximal inhibition (IC50) is 67 nM at KRAS G12C; over 5000 nM in assay [1] (Homo sapiens, A549, 72 h); 671 nM in assay [2] (Homo sapiens, MIA PaCa-2, 72 h).

With `C=CC(=O)N1CC2(CCN(c3nc4cc(-c5scnc5C)cnc4c(-c4cccc(C)c4C)c3C#N)C2)C1` (single isomer, unassigned) [Example 19-14, (P)-4-(2,3-dimethylphenyl)-7-(4-methyl-1,3-thiazol-5-yl)-2-(2-(2-propenoyl)-2,6-diazaspiro[3.4]octan-6-yl)-1,5-naphthyridine-3-carbonitrile], the IC50 against KRAS G12C was 38 nM; in assay [1] (72 h), over 5000 nM; in assay [2] (72 h) it was 366 nM.

Take `C=CC(=O)N1CC2(CCN(c3nc4cc(-c5scnc5C)ccc4c(-c4c(O)cccc4F)c3C#N)C2)C1` (single isomer, unassigned) [Example 19-15, (M)-4-(2-fluoro-6-hydroxyphenyl)-7-(4-methyl-1,3-thiazol-5-yl)-2-(2-(2-propenoyl)-2,6-diazaspiro[3.4]octan-6-yl)-3-quinolinecarbonitrile]: the IC50 against KRAS G12C amounted to 2960 nM; in assay [1] (72 h), 7600 nM; in assay [2] (72 h), 4560 nM.

Regarding `C=CC(=O)N1CC2(CCN(c3nc4cc(-c5scnc5C)ccc4c(-c4ccccc4Cl)c3C#N)C2)C1` (single isomer, unassigned) [Example 20-3, (M)-4-(2-chlorophenyl)-7-(4-methyl-1,3-thiazol-5-yl)-2-(2-(2-propenoyl)-2,6-diazaspiro[3.4]octan-6-yl)-3-quinolinecarbonitrile], the half-maximal inhibitory concentration (IC50) is 277 nM at KRAS G12C; over 5000 nM in assay [1] (Homo sapiens, A549, 72 h); 2180 nM in assay [2] (72 h).

Consider `C=CC(=O)N1CC2(CCN(c3nc4cc(-c5scnc5C)ccc4c(-c4ccccc4Cl)c3C#N)C2)C1` (single isomer, unassigned) [Example 20-4, (P)-4-(2-chlorophenyl)-7-(4-methyl-1,3-thiazol-5-yl)-2-(2-(2-propenoyl)-2,6-diazaspiro[3.4]octan-6-yl)-3-quinolinecarbonitrile], for which the IC50 was 69 nM at KRAS G12C, over 5000 nM in assay [1] (72 h) and 1010 nM in assay [2] (72 h).

With `C=CC(=O)N1CC2(CCN(c3nc4cc(-c5scnc5C)cnc4c(-c4ccccc4Cl)c3C#N)C2)C1` (single isomer, unassigned) [Example 20-8, (M)-4-(2-chlorophenyl)-7-(4-methyl-1,3-thiazol-5-yl)-2-(2-(2-propenoyl)-2,6-diazaspiro[3.4]octan-6-yl)-1,5-naphthyridine-3-carbonitrile], the IC50 is 139 nM against KRAS G12C; over 5000 nM in assay [1] (Homo sapiens, A549, 72 h); 974 nM in assay [2] (72 h).

For the compound `C=CC(=O)N1CC2(CCN(c3nc4cc(-c5scnc5C)cnc4c(-c4ccccc4Cl)c3C#N)C2)C1` (single isomer, unassigned) [Example 20-9, (P)-4-(2-chlorophenyl)-7-(4-methyl-1,3-thiazol-5-yl)-2-(2-(2-propenoyl)-2,6-diazaspiro[3.4]octan-6-yl)-1,5-naphthyridine-3-carbonitrile], the IC50 is 42 nM against KRAS G12C, 3190 nM in assay [1] (72 h) and 200 nM in assay [2] (72 h).

`C=CC(=O)N1CC2(CCN(c3nc4c(c(-c5ccccc5Cl)c3C#N)CCN(c3scnc3C)C4)C2)C1` (single isomer, unassigned) [Example 21-22, (P)-4-(2-chlorophenyl)-7-(4-methyl-1,3-thiazol-5-yl)-2-(2-(2-propenoyl)-2,6-diazaspiro[3.4]octan-6-yl)-5,6,7,8-tetrahydro-1,7-naphthyridine-3-carbonitrile]: the IC50 on KRAS G12C was 34 nM; in assay [1] (Homo sapiens, A549, 72 h), over 5000 nM; in assay [2] (72 h), 170 nM.

In the case of `C=CC(=O)N1CC2(CCN(c3nc4c(c(-c5ccccc5Cl)c3C#N)CCN(c3scnc3C)C4)C2)C1` (single isomer, unassigned) [Example 21-23, (M)-4-(2-chlorophenyl)-7-(4-methyl-1,3-thiazol-5-yl)-2-(2-(2-propenoyl)-2,6-diazaspiro[3.4]octan-6-yl)-5,6,7,8-tetrahydro-1,7-naphthyridine-3-carbonitrile], the IC50 against KRAS G12C was 114 nM; in assay [1] (72 h), over 5000 nM; in assay [2] (72 h), 619 nM.

Take `C=CC(=O)N1CC2(CCN(c3nc4c(c(-c5cc(O)ccc5Cl)c3C#N)CCN(c3scnc3C)C4)C2)C1` (single isomer, unassigned) [Example 21-24, (P)-4-(2-chloro-5-hydroxyphenyl)-7-(4-methyl-1,3-thiazol-5-yl)-2-(2-(2-propenoyl)-2,6-diazaspiro[3.4]octan-6-yl)-5,6,7,8-tetrahydro-1,7-naphthyridine-3-carbonitrile]: the IC50 is 18 nM on KRAS G12C, over 5000 nM in assay [1] (72 h) and 297 nM in assay [2] (72 h).

For `C=CC(=O)N1CC2(CCN(c3nc4c(c(-c5cc(O)ccc5Cl)c3C#N)CCN(c3scnc3C)C4)C2)C1` (single isomer, unassigned) [Example 21-25, (M)-4-(2-chloro-5-hydroxyphenyl)-7-(4-methyl-1,3-thiazol-5-yl)-2-(2-(2-propenoyl)-2,6-diazaspiro[3.4]octan-6-yl)-5,6,7,8-tetrahydro-1,7-naphthyridine-3-carbonitrile], the IC50 on KRAS G12C stood at 3260 nM; in assay [1] (72 h) it was 13400 nM; in assay [2] (72 h) it was 7400 nM.

`C=CC(=O)N1CC2(CCN(c3nc4c(c(-c5cccc(C)c5C)n3)CC[C@@H](c3scnc3C)C4)C2)C1` (single isomer, unassigned) [Example 22-1]: the IC50 against KRAS G12C was 38 nM; in assay [1] (Homo sapiens, A549, 72 h) it was over 5000 nM; in assay [2] (Homo sapiens, MIA PaCa-2, 72 h), 585 nM.

In the case of `C=CC(=O)N1CC2(CCN(c3nc4c(c(-c5cccc(C)c5C)n3)CC[C@H](c3scnc3C)C4)C2)C1` (single isomer, unassigned) [Example 22-2], the IC50 at KRAS G12C is 701 nM; in assay [1] (Homo sapiens, A549, 72 h) it was over 25000 nM; in assay [2] (Homo sapiens, MIA PaCa-2, 72 h), 5270 nM.

As for `C=CC(=O)N1CC2(CCN(c3nc4c(c(-c5ccccc5C)c3C#N)CC[C@@H](c3scnc3C)C4)C2)C1` (single isomer, unassigned) [Example 23-3], the IC50 was 107 nM at KRAS G12C; over 5000 nM in assay [1] (Homo sapiens, A549, 72 h); 2520 nM in assay [2] (72 h).
